Laboratory results reported in patent publication US5416194A, “Polypeptide having affinity for lipopolysaccharide and method for preparing the same” (Seikagaku Kogyo Co., Ltd., priority 1987, dated 1995).
Where no end group is shown, it is not given here.

What was measured:
[1] = test system: LPS sensitized erythrocyte (human O-type); assay: Hemolysis activity on LPS sensitized erythrocyte; type: cell-based
Description: To 1 ml of suspension containing mainly 2.5% human O-type erythrocyte, 0.5 ml of LPS (1 mg/ml ) was added and the mixture was shaken at […] for 1 hour to mix, followed by washing with saline solution.
A mixture of 50 μl of 0.5% LPS sensitized erythrocyte, 50 μl of 2-fold series diluted solution of 0.5% polypeptide of the present invention and 100 μl of Tris-HCl-buffered saline saline buffer (pH 7.2) was maintained at 37° C. for 1 hour and thereafter 2.3 ml of physiologic saline was added thereto, followed by centrifugation with 2,500 rpm for 10 minutes. The amount of hemoglobin in the supernatant was determined by use of […] absorption. Also, the hemolysis pattern on a micro plate was determined by use of a micro plate reader (Corona MPT-100: trade name) after maintaining a mixture of 50 μl of 0.5% LPS sensitized erythrocyte and 50 μl of 2-fold series diluted solution of 0.5% polypeptide at 37° C. for 1 hour.

bacteria = assay: Antibacterial activity in general, inhibition circle on agar containing bacteria; type: cell-based
Description: (§1) Twenty μl of a 2-fold series diluted solution containing 0.5% polypeptide (SEQ ID NO: 1) of the present invention and 20 μl of bacterium solution (10^6 to 10^7/ ml) were cultured onto 160 μl of a culture medium of Penassay or a synthetic medium of Jarvis. After 18 hours at 37° C., its turbidity was measured by use of a micro plate reader at 550 nm and also partial live bacteria number and inhibition circle were measured.

[2] = test system: Spleen cells (SC) of C57BL male mouse; assay: Inhibition of blastogenesis of mouse lymphocyte by LPS (3H-TdR uptake, microscopy); type: cell-based; settings: for magnification and colonization (blastogenesis) under the microscope: then 50 μg/ml LPS, three days; for inhibition of blastogenesis of lymphocyte: in the presence of LPS, 72 hours, 3H-TdR, FIG. 5
Description: Spleen cells (SC) of C57BL male mouse (5 weeks age) was collected by use of Ficoll-Hypaque gravity centrifugation and suspended in RPMI-1640 culture medium (no serum or added with BSA, FCS). The resulting culture medium was adjusted to 3×10^6 cell/ml and 100 μl was distributed into each of the 96-holes of a microtiter plate. 10 μl each of 0.4, 4, 40 and 400 μg/ml polypeptide of the present invention (LBP), finally then 80 μl of the culture medium, and finally 10 μl of 400 μg/ml LPS were added to the distibuted culture medium, followed by incubation in 5% CO2 incubator for 72 hours. ^3 H-thymidine (^3 H-TdR) was added thereto in an amount of 1 μci/10 μl 18 hours before completion of the incubation. The amount of ^3 H-TdR collected after peeling off of cells by use of cell harvester was measured by use of a liquid scintillation counter to discover the index of cell multiplication.
Cell multiplication was observed by using a microscope to take an insert image microphotograph.

[3] = test system: C factor (activation with LPS derived from E. coli 0111 B4 strain); assay: Inhibition of activation of C factor by LPS; type: biochemical, Horseshoe crab
Description: The acidic extract, concentrated and dried, was redissolved in 20mM HCl aq. soln. and then added into a Sephadex G-50 column (3.0×90.0 cm) (previously equilibrated with 20mM HCl aq. soln.) to effect gel filtration. The eluted fractions inhibiting activation of C factor with LPS (one derived from E. coli 0111 B4 strain was used) (Horseshoe crab blood coagulating serine protease precursor; LPS-sensitive factor named by the present inventors, Nakamura et al., Eur. J. Biochem., 154, 511 (1986 ) ) were collected, and the pH of the pooled fractions was adjusted to 6.0 with NaOH aq. soln.
The test results for the inhibition effect of the polypeptide (SEQ ID NO: 1) of the present invention against activation of C factor by LPS are shown in FIG. 2 and FIG. 3. FIG. 2 and FIG. 3 show the results in the absence or presence (1M) of sodium chloride, respectively. […] This property of binding electrically with LPS has been discovered by the present inventors. In FIG. 2 and FIG. 3, the marks (o) and show the results of the polypeptide of the present invention and polylysine, respectively.

[4] = test system: Peripheral blood mononuclear cells of healthy human; assay: Inhibition of blastogenesis of human peripheral lymphocyte by LPS (3H-TdR uptake); type: cell-based; settings: 10 μg/ml LBP, 50 μg/ml LPS, 72 hours, FIG. 10
Description: Peripheral blood mononuclear cells (PBNC)of healthy human ([…]) were collected by use of Ficoll-Hypaque gravity centrifugation and suspended in RPMI-1640 culture medium (no serum or added with BSA, FCS). The resulting culture medium was adjusted to 2×10^6 cell/ml and 100 μl was distributed into each of the 96-holes of a microtiter plate. 10 μl of 200 μg/ml LBP, then 80 μl of the culture medium, and finally 10 μl of 400 μg/ml LPS were added to the distributed culture medium, followed by incubation in 5% CO2 incubator for, 72 hours. ^3 H-thymidine (^3 H-TdR) was added thereto in an amount of 1 μci/10 μl 18 hours before completion of the incubation. The amount of ^3 H-TdR collected after peeling of cells by use of cell harvester was measured by use of a liquid scintillation counter to discover the index of cell multiplication.

[5] = Gel precipitin reaction / double diffusion test in 1% agarose gel; type: binding
Description: In a solution of 1% agarose (0.1% NaN3 was added) dissolved in Tris-HCl-physiologic saline of pH 7.2, Beronall buffer of pH 8.6 and acetate buffer of pH 4.6, a sedimentation line was formed between LPS and the polypeptide (SEQ ID NO: 1) of the present invention or anti-LPS factor {basic protein having MW of 11,600, consisting of amino acid 102 residue obtained from extract (lysate) of Tachypleus tridentatus hemocyte; hereinafter referred to "ALF"}. The line was dyed in amide black. The diluent used for the polypeptide of the present invention was 50 mM Tris HCl--0.15M NaCl (pH 7.2).

[6] = test system: Salmonella typhimurium 1102(Re); assay: Antibacterial activity; type: cell-based
Description: as §1

[7] = test system: Salmonella typhimurium LT 2(S); assay: Antibacterial activity; type: cell-based
Description: as §1

[8] = test system: Salmonella minnesota R 595(Re); assay: Antibacterial activity; type: cell-based
Description: as §1

Staphylococcus aureus = assay: Antibacterial activity; type: cell-based; settings: Gram positive bacteria
Description: as §1

[9] = test system: Salmonella minnesota 1114 W(S); assay: Antibacterial activity; type: cell-based
Description: as §1

[10] = test system: non-sensitized erythrocyte; type: cell-based, human

## polypeptide (SEQ ID NO: 1): 17 amino acid polypeptide isolated from Tachypleus tridentatus hemocyte and also made by solid phase synthesis; C-end arginine amidated (KWCFRVCYRGICYRRCR-NH2; cysteine pairing not given here)
[1]; ALF = anti-LPS factor, basic protein of MW 11,600 from Tachypleus tridentatus hemocyte lysate
  hemolysis activity compared with ALF: weaker than that of ALF
[1]; free LPS added
  effect of free LPS on hemolysis: hemolysis was inhibited by a free LPS
[1]; high concentration, room temperature
  hemolysis at room temperature: exhibited hemolysis with ease
bacteria; ALF = anti-LPS factor from Tachypleus tridentatus hemocyte lysate
  antibacterial activity compared with ALF: generally stronger than that of ALF
bacteria; on an agar containing bacteria
  inhibition circle: formed depending on the concentration
[2]; 0.2 μg/ml LBP, FIG. 7
  magnification and colonization (blastogenesis) under the microscope: few change were revealed
[2]; 2 μg/ml LBP, FIG. 8
  magnification and colonization (blastogenesis) under the microscope: magnification and colonization were hardly revealed
[2]; 2 μg/ml LBP
  inhibition of blastogenesis of lymphocyte: ≥ 90%
[2]; 20 μg/ml LBP, FIG. 9
  magnification and colonization (blastogenesis) under the microscope: magnification and colonization were hardly revealed
[2]; 20 μg/ml LBP
  inhibition of blastogenesis of lymphocyte: ≥ 90%
[3]; 0.1 μg/ml of LPS (E. coli 0111 B4)
  concentration inhibiting activation of C factor with LPS 50%: 0.12 µg/mL
[3]; 0.1 μg/ml of LPS (E. coli 0111 B4), read-out: concentration inhibiting activation of C factor with LPS 50%
  IC50: 50 nM
[3]; absence or presence (1M) of sodium chloride, FIG. 2 and FIG. 3, polylysine as control
  influence of salt concentration on inhibition of C factor activation by LPS: strong affinity for LPS which is not influenced by the salt concentration
[3]; amount of LBP relative to amount of LPS
  binding activity between LBP and LPS, C factor activity inhibition as index: about 20 times amount of LPS amount
[3]; at 1 μM (2.3 μg/ml) polypeptide, 0.1 μg/ml of LPS (E. coli 0111 B4)
  inhibition of activation of C factor with LPS: completely
[4]
  inhibition of blastogenesis of lymphocyte: approximately 100%
[5]; 1% agarose gel
  sedimentation line with LPS in the double diffusion test: form a sedimentation line
[5]; any LPS of Salmonella minnesota 1114 W, R595, E. coli 0111:B4, 0113 and J5
  sedimentation lines in the gel precipitation reaction: sharp sedimentation lines
[6]
  antibacterial activity: exhibited antibacterial activity
[6]; 18 hours at 37° C.
  minimum antibacterial dose: 1.56 µg/mL
[7]
  antibacterial activity: exhibited antibacterial activity
[7]; 18 hours at 37° C.
  minimum antibacterial dose: 3.13 µg/mL
[8]
  antibacterial activity: exhibited antibacterial activity
Staphylococcus aureus
  antibacterial activity: exhibited antibacterial activity
[9]
  antibacterial activity: exhibited antibacterial activity
[10]
  amount at which hemolysis of non-sensitized erythrocyte was observed: ≥ 3.13 μ/ml
